Experimental data: publication PMC8486872, “A rational blueprint for the design of chemically-controlled protein switches” (Nature Communications, 2021)
pEC50, pIC50: −log10 of the molar value. Where “and” joins values, the source holds several entries; their conditions need not be identical. Equal entries are not always repeated. Entries after “also recorded” stand apart in the source; their conditions may differ.

Assays:
[1] = system: SEAP and Luciferase expression in HEK293T cells; assay: SIMO designer cells (AIR-1/2-GEMS + CDH-1/2-TF); type: cell-based; parameters: Bottom (best-fit value) / Top (best-fit value) / Span (best-fit value): unit not given here
Excerpt: Fig. 5 Orthogonal chemical switches enable implementation of multi-input multi-output control modes in mammalian cells. a Scheme of multi-inputs multi-outputs (MIMO) designer cells where two drugs control two different outputs. b, c Cells were co-transfected with AIR-1/2-GEMS and CDH-3-TF regulate SEAP and Luciferase expression, respectively. […] AIR-1/2-GEMS coupled with SEAP expression circuits were co-transfected with CDH-1/2-TF circuits which control the Luciferase production. Respective drug concentrations ranged from 0.001 nM to 1 µM. All values presented are mean ± s.d. of three replicates and curves were fitted by four-parameters nonlinear regression. b, c, e, f, h, i Source data are available in the source data file.
Finally, we engineered SIMO cells (Fig. 5g) using two designed switches that produce ON and OFF responses upon exposure to the same drug. We transfected cells with combinations of AIR-GEMS and CDH-TFs which controlled the expression of the reporter proteins SEAP and Luciferase, respectively. […] Therefore, computational design expanded the repertoire of protein switches controlled by the same compounds that can be used to simultaneous turn ON and OFF synergistic outputs. […]
AIR-1-GEMS coupled with SEAP expression circuits (i) and CDH-1-TF circuits which control the Luciferase production (j). j-k) Quantification of SEAP and Luciferase activities under Drug-2. AIR-2-GEMS coupled with SEAP expression circuits (k) and CDH-2-TF circuits which control the Luciferase production (l). b-k) Each data point represents the mean of n = 3 biological replicates, and the dose-dependent curve were fitted using four-parameter nonlinear regression.

[2] = system: JAK/STAT pathway SEAP expression in HEK293T cells; assay: AIR-GEMS ON-switch SEAP assay; conditions: Homo sapiens, HEK-293T, read-out: EC50, AIR-2-GEMS activation by Drug-2
Method: We fused the AIR components in the ectodomains of the GEMS and measured SEAP activity as a reporter for drug-triggered activation.
HEK293T cells were maintained in DMEM medium with 10% FBS (Gibco) and Pen/Strep (Thermo Fisher). Cells were maintained and split every two days at around 80% confluence. HEK293T cells were seeded 24 h before transfection, and transfected with the lipofectamine 3000 kit (Thermo Fisher). Plasmids were cotransfected according to the Table S7. For the drug OFF-switch experiments, drugs were added 12 h post transfection and incubated with cells for 24 h before the SEAP detection assay.
Representative data of cellular assays are presented as individual values and mean values (bars). n = 3 refers to biological replicates. All IC50/EC50 values of cellular assays (CDH-TF, CDH-GEMS, AIR-TF and AIR-GEMS) reported were calculated using four-parameter nonlinear regression ± s.d.
Bcl2 mutants were cloned into the AIR-GEMS

[3] = biological target: Bcl2:LD3 complex (CDH-2) (Homo sapiens, UniProt P10415); assay: SEC-MALS drug-induced monomerization of Bcl2:LD3; conditions: 50 µM proteins, 100 µM drug
Sequence of Bcl2:LD3 complex (CDH-2) (P10415 with tags, fused parts or gaps): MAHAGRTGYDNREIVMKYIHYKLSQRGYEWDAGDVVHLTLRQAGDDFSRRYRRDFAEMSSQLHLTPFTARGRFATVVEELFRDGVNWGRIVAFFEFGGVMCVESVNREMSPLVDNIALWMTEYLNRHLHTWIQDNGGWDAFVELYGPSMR
Method: LD6 was further characterized by Size Exclusion Chromatography coupled to Light Scattering (SEC-MALS) for solution behavior, and to study dimerization and drug-induced monomerization properties. LD6 was injected at 50–100 µM into a Superdex^TM 75 300/10 GL column (GE Healthcare) using a high-performance liquid chromatography system (Ultimate 3000, Thermo Scientific) at a flow rate of 0.5 ml/min. The UV spectrum at 280 nm was collected along with static light scatter signal by a MALS device (miniDAWN TREOS, Wyatt). […] Then the mixtures were treated with either 100 µM (two-fold excess) of the corresponding drugs or the same volume of DMSO to detect complex formation and forced dissociation in SEC-MALS. The light scatter signal of the sample was collected from three different angles and the results were analyzed using the ASTRA software (version 6.1, Wyatt).
Supplementary Figure 1: Biophysical characterization of CDH-2.
Drug concentrations from 0.01 nM to
10 µM were pre-incubated with 4 µM LD3, then the mixtures were injected over a Bcl2-immobilized chip.
Response units reflect the remaining interaction of Bcl2 and LD3 in the presence of serial diluted Drug-
2. d) SEC-MALS analysis of CDH-2 showing Bcl2:LD3 complex with DMSO (black trace) and Bcl2:LD3
and LD3 (16 kDa) eluted around 22 minutes.
(1 picture or pasted object on this page, not shown here)

[4] = Fig S13j, AIR-2-GEMS control SEAP expression only, Drug-2 3.16 nM
[5] = Fig S13j, AIR-2-GEMS control SEAP expression only, Drug-2 10 nM
[6] = Fig S13j, AIR-2-GEMS control SEAP expression only, Drug-2 100 nM
[7] = Fig S13j, AIR-2-GEMS control SEAP expression only, Drug-2 316 nM
[8] = Fig S13j, AIR-2-GEMS control SEAP expression only, Drug-2 1000 nM
[9] = sheet Figure5i, SEAP, four-parameter fit

Which “SEAP and Luciferase outputs in SIMO cells” value ([1]; 0.001 nM to 1 µM) does the source give for `CC1(C)CCC(CN2CCN(c3ccc(C(=O)NS(=O)(=O)c4ccc(NCC5CCOCC5)c([N+](=O)[O-])c4)c(Oc4cnc5[nH]ccc5c4)c3)CC2)=C(c2ccc(Cl)cc2)C1` [Drug-2, Venetoclax] here?
The value was “simultaneously activated SEAP production and suppressed the expression of Luciferase”.

And the SEAP ([1]; Fig5i, turn ON (title: via AIR-1-GEMS), 0.001 nM)?
Its SEAP is 11.0539 U/L and 12.4374 U/L and 11.7528 U/L.

And the SEAP ([1]; Fig5i, turn ON (title: via AIR-1-GEMS), 0.005 nM)?
The SEAP was 14.3953 U/L and 10.7601 U/L and 8.34 U/L.

What about the SEAP ([1]; Fig5i, turn ON (title: via AIR-1-GEMS), 0.05 nM) of the same molecule?
Its SEAP is 12.0377 U/L and 10.3343 U/L and 7.481 U/L.

What about the SEAP ([1]; Fig5i, turn ON (title: via AIR-1-GEMS), 0.5 nM) of the same molecule?
The SEAP was 13.1482 U/L and 9.328 U/L and 7.802 U/L.

And the SEAP ([1]; Fig5i, turn ON (title: via AIR-1-GEMS), 1 nM)?
The SEAP was 16.8267 U/L and 13.7148 U/L and 13.9654 U/L.

And the SEAP ([1]; Fig5i, turn ON (title: via AIR-1-GEMS), 5 nM)?
The SEAP was 12.4083 U/L and 18.0777 U/L and 19.7017 U/L.

What about the SEAP ([1]; Fig5i, turn ON (title: via AIR-1-GEMS), 10 nM) of the same molecule?
Its SEAP is 32.3034 U/L and 32.696 U/L and 36.5671 U/L.

And the SEAP ([1]; Fig5i, turn ON (title: via AIR-1-GEMS), 50 nM)?
Its SEAP is 48.8555 U/L.

And the SEAP ([1]; Fig5i, turn ON (title: via AIR-1-GEMS), 100 nM)?
Its SEAP is 61.1746 U/L and 72.5404 U/L.

What about the SEAP ([1]; Fig5i, turn ON (title: via AIR-1-GEMS), 500 nM) of the same molecule?
Its SEAP is 94.0018 U/L and 86.0577 U/L.

What about the SEAP ([1]; Fig5i, turn ON (title: via AIR-1-GEMS), 1000 nM) of the same molecule?
Its SEAP is 105.374 U/L and 86.4725 U/L.

What about the SEAP ([1]; Fig S13j, AIR-2-GEMS control SEAP expression only, Drug-2 0.01 nM) of the same molecule?
The SEAP was 269 U/L and 225 U/L and 167 U/L.

And the SEAP ([1]; Fig S13j, AIR-2-GEMS control SEAP expression only, Drug-2 1 nM)?
Its SEAP is 225 U/L and 173 U/L and 167 U/L.

What about the Luciferase [1, 4] of the same molecule?
The Luciferase was 18.3864 RLU and 14.0122 RLU and 11.0547 RLU.

What about the SEAP [1, 4] of the same molecule?
Its SEAP is 199 U/L and 215 U/L and 123 U/L.

What about the Luciferase [1, 5] of the same molecule?
Its Luciferase is 59.3143 RLU and 64.1927 RLU and 53.9121 RLU.

And the SEAP [1, 5]?
Its SEAP is 143 U/L and 145 U/L and 125 U/L.

What about the SEAP ([1]; Fig S13j, AIR-2-GEMS control SEAP expression only, Drug-2 31.6 nM) of the same molecule?
Its SEAP is 149 U/L and 123 U/L.

What about the Luciferase [1, 6] of the same molecule?
Its Luciferase is 277.707 RLU and 262.611 RLU and 223.323 RLU.

And the SEAP [1, 6]?
Its SEAP is 157 U/L and 127 U/L and 107 U/L.

And the Luciferase [1, 7]?
The Luciferase was 280.311 RLU and 280.175 RLU and 202.801 RLU.

And the SEAP [1, 7]?
Its SEAP is 177 U/L and 117 U/L and 123 U/L.

What about the Luciferase [1, 8] of the same molecule?
Its Luciferase is 203.844 RLU and 222.434 RLU and 194.549 RLU.

What about the SEAP [1, 8] of the same molecule?
Its SEAP is 191 U/L and 169 U/L and 179 U/L.

What about the SEAP ([1]; Fig S13k, CDH-2-TF control Luciferase expression only, Drug-2 0.01 nM) of the same molecule?
Its SEAP is 77283 U/L and 94282 U/L and 94549 U/L.

And the SEAP ([1]; Fig S13k, CDH-2-TF control Luciferase expression only, Drug-2 0.1 nM)?
Its SEAP is 83949 U/L and 102019 U/L and 91551 U/L.

And the SEAP ([1]; Fig S13k, CDH-2-TF control Luciferase expression only, Drug-2 1 nM)?
The SEAP was 97527 U/L and 93132 U/L and 98408 U/L.

And the SEAP ([1]; Fig S13k, CDH-2-TF control Luciferase expression only, Drug-2 3.16 nM)?
The SEAP was 96858 U/L and 87221 U/L and 87443 U/L.

And the SEAP ([1]; Fig S13k, CDH-2-TF control Luciferase expression only, Drug-2 10 nM)?
The SEAP was 78643 U/L and 87229 U/L and 90599 U/L.

What about the SEAP ([1]; Fig S13k, CDH-2-TF control Luciferase expression only, Drug-2 31.6 nM) of the same molecule?
Its SEAP is 80585 U/L and 86321 U/L and 73406 U/L.

What about the SEAP ([1]; Fig S13k, CDH-2-TF control Luciferase expression only, Drug-2 100 nM) of the same molecule?
The SEAP was 64234 U/L and 74136 U/L and 75517 U/L.

What about the SEAP ([1]; Fig S13k, CDH-2-TF control Luciferase expression only, Drug-2 316 nM) of the same molecule?
The SEAP was 47807 U/L and 51555 U/L and 52806 U/L.

And the SEAP ([1]; Fig S13k, CDH-2-TF control Luciferase expression only, Drug-2 1000 nM)?
Its SEAP is 34743 U/L and 30667 U/L and 26001 U/L.

And the pIC50 ([1]; Homo sapiens, HEK-293T, sheet Figure5i, SEAP column (turn ON), four-parameter fit, given as IC50, read-out: IC50 (best-fit value))?
The pIC50 was 8.28.

And the “Bottom (best-fit value)” value [1, 9]?
Its value is 28.34.

And the “HillSlope (best-fit value)” value [1, 9]?
Its value is 1.403.

And the “Span (best-fit value)” value [1, 9]?
Its value is 390.7.

And the “Top (best-fit value)” value [1, 9]?
Its value is 419.

What about the “logIC50 (best-fit value)” value ([1]; sheet Figure5i, SEAP, four-parameter fit, drug in nM) of the same molecule?
Its value is 0.7193.

What about the pEC50 [2] of the same molecule?
The pEC50 was 9.30.

What about the “disruption of Bcl2:LD3 complex by SEC-MALS” value [3] of the same molecule?
Its value is “effectively disrupts; also recorded: did not result in complex formation”.
